Tests used:
Assay type in all cases: biochemical
p110β/p85α = p110β/p85α (Homo sapiens, UniProt P42338); assay: Transcreener KINASE Assay, kinase inhibition of p110β/p85α; conditions: for PI3Kβ IH % @ 1 uM: 1 uM test compound; for IC50: read-out: PI3Kβ IC50
Description: (§1) PI3K kinases including p110α/p85α, p110δ/p85α and p110γ are purchased from Invitrogen, and p110β/p85α is from Millipore.
(§2) Primary screening data and IC50 values are measured using Transcreener™ KINASE Assay (Bellbrook, Catalog #3003-10K). […] It is a universal, homogenous, high throughput screening (HTS) technology using a far-red, competitive fluorescence polarization immunoassay based on the detection of ADP to monitor the activity of enzymes that catalyze group transfer reactions. Briefly, the Transcreener KINASE Assay is designed as a simple two-part, endpoint assay.
(§3) In the first step, the 25 ul kinase reaction is performed by preparing a reaction mixture containing 5 ul test compound (2% DMSO final concentration), 10 ul kinase, buffer (50 mM HEPES, 100 mM NaCl, 1 mM EGTA, 0.03% CHAPS, 3 mM MgCl2, and freshly supplemented 1 mM DTT), and 10 ul 30 uM PIP2/10 uM ATP. The plate is sealed and incubated for 80 min at room temperature. Next, 25 ul ADP detection mix is added per well. The plate is sealed again and incubated for 60 min at room temperature, and then measure fluorescence polarization by Tecan Infinite F500 Reader.
(§4) Data is analyzed and IC50s are generated using the add-in software for Microsoft Excel, Xlfit™ (version 2.0). IH %=(ADP amount under 2% DMSO-ADP amount under test compound)/ADP amount under 2% DMSO.

p110δ/p85α = p110δ/p85α (Homo sapiens, UniProt O00329); assay: Transcreener KINASE Assay, kinase inhibition of p110δ/p85α; conditions: for PI3Kδ IH % @ 1 uM: 1 uM test compound; for IC50: read-out: PI3Kδ IC50
Sequence of p110δ/p85α (O00329 whole entry): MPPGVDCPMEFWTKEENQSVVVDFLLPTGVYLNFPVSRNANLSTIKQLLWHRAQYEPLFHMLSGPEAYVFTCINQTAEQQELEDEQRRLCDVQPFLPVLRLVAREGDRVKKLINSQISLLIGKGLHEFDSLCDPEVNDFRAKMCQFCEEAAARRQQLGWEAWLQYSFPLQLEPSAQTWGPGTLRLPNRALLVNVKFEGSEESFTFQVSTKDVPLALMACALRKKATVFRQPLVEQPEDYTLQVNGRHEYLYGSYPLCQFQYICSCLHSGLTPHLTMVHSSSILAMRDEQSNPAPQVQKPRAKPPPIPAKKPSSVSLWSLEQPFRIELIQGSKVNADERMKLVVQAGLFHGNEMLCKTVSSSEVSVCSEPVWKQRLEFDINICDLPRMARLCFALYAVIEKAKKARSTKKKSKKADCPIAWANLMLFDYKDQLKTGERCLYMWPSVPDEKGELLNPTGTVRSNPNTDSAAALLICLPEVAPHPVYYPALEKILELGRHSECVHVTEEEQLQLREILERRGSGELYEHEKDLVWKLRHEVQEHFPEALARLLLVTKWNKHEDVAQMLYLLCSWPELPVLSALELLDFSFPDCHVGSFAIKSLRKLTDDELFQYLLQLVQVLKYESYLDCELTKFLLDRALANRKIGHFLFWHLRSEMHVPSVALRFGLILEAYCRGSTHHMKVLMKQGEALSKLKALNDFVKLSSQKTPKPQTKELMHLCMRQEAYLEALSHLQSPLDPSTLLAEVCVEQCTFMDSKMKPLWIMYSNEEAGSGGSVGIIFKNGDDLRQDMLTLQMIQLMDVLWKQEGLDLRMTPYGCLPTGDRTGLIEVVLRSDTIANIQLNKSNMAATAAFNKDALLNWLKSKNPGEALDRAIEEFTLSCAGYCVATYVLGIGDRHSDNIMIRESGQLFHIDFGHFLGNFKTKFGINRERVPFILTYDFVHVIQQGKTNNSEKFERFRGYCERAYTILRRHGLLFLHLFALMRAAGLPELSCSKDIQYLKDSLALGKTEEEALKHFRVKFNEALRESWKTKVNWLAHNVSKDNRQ
Sequence of p110δ/p85α (P27986 whole entry partner): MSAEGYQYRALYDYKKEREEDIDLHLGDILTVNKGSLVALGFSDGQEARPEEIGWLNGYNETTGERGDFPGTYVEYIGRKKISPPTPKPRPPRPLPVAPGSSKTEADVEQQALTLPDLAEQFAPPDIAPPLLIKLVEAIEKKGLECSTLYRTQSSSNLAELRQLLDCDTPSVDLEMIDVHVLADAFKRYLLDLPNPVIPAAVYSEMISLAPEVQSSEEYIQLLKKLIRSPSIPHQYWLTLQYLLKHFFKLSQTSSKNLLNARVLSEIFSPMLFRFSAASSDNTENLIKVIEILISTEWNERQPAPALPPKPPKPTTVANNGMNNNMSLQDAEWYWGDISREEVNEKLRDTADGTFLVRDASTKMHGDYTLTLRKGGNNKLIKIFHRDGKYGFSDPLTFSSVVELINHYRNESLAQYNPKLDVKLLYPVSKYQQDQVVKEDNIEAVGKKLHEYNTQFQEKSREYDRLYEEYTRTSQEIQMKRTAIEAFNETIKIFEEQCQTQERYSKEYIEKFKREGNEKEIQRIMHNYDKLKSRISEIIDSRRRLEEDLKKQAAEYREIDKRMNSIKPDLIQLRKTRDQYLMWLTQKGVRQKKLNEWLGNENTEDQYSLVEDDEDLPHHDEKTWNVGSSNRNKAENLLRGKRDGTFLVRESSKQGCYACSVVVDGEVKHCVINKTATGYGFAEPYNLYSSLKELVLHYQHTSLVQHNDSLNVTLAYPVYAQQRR
Description: as §1, §2, §3, §4

p110γ = p110γ (Homo sapiens, UniProt P48736); assay: Transcreener KINASE Assay, kinase inhibition of p110γ; conditions: for PI3Kγ IH % @ 1 uM: 1 uM test compound; for IC50: read-out: PI3Kγ IC50
Sequence of p110γ (P48736 whole entry): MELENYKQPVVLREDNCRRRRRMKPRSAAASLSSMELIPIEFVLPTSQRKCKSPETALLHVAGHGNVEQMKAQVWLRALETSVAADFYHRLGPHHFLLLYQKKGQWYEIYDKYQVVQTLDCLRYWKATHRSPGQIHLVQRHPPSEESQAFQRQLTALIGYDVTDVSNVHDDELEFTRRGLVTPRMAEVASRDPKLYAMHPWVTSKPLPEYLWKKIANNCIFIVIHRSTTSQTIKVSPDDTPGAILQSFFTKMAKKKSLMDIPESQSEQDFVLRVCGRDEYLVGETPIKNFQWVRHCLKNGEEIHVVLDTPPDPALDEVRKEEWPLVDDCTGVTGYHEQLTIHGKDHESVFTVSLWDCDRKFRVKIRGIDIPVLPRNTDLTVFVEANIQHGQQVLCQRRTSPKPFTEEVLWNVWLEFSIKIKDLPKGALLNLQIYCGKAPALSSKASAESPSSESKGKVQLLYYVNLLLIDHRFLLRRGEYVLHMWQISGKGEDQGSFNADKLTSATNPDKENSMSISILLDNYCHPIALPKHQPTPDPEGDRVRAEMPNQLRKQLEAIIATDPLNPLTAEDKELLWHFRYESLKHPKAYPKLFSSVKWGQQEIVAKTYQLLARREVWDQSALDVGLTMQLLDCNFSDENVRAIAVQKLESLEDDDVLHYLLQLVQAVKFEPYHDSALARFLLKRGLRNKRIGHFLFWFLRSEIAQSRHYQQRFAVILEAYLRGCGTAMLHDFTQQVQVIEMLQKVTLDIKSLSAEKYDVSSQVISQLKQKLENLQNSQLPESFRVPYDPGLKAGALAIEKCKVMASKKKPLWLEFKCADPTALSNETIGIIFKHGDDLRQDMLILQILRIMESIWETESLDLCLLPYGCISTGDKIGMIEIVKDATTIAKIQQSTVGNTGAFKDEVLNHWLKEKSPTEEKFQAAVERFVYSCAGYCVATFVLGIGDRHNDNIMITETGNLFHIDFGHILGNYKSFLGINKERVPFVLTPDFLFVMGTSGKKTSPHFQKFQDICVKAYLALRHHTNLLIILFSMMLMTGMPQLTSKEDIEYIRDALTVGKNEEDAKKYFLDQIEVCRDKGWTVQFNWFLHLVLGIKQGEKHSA
Description: Kinase Inhibition assays of p110α/p85α, p110β/p85α, p110δ/p85α and p110γ PI3K kinases including p110α/p85α, p110δ/p85α and p110γ are purchased from Invitrogen, and p110β/p85α is from Millipore. Primary screening data and IC50 values are measured using Transcreener™ KINASE Assay (Bellbrook, Catalog #3003-10K). […] It is a universal, homogenous, high throughput screening (HTS) technology using a far-red, competitive fluorescence polarization immunoassay based on the detection of ADP to monitor the activity of enzymes that catalyze group transfer reactions. Briefly, the Transcreener KINASE Assay is designed as a simple two-part, endpoint assay. […] The plate is sealed and incubated for 80 min at room temperature. Next, 25 ul ADP detection mix is added per well. The plate is sealed again and incubated for 60 min at room temperature, and then measure fluorescence polarization by Tecan Infinite F500 Reader. Data is analyzed and IC50s are generated using the add-in software for Microsoft Excel, Xlfit™ (version 2.0).

Sequence of p110β/p85α (P42338 whole entry): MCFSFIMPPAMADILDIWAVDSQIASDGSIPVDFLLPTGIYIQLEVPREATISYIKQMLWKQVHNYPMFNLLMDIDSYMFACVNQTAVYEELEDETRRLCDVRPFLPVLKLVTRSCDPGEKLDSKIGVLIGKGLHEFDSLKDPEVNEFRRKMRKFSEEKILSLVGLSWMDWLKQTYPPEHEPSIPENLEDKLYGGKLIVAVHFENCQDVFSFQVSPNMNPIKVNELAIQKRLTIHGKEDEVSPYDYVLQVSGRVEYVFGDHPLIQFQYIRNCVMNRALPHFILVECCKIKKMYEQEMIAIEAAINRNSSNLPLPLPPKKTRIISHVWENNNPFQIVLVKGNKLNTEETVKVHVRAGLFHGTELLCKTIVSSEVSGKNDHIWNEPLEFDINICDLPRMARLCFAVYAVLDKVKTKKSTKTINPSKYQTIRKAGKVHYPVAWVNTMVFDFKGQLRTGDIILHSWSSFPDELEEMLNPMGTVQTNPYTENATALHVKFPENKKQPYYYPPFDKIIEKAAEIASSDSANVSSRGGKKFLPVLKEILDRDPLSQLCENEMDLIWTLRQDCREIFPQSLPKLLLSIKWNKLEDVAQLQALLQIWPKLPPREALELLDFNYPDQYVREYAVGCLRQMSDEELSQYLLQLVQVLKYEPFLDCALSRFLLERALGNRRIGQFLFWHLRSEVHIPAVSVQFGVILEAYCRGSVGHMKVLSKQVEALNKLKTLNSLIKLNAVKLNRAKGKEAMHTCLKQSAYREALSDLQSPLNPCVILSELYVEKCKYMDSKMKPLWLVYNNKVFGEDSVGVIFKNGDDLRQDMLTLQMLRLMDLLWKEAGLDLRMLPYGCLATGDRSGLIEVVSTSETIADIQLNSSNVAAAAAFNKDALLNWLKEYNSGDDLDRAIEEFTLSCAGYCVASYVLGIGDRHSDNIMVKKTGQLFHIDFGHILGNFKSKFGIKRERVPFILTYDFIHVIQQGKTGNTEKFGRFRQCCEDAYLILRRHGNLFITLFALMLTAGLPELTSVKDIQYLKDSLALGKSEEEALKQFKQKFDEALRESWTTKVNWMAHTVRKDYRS
Sequence of p110β/p85α (P27986 2-724 partner): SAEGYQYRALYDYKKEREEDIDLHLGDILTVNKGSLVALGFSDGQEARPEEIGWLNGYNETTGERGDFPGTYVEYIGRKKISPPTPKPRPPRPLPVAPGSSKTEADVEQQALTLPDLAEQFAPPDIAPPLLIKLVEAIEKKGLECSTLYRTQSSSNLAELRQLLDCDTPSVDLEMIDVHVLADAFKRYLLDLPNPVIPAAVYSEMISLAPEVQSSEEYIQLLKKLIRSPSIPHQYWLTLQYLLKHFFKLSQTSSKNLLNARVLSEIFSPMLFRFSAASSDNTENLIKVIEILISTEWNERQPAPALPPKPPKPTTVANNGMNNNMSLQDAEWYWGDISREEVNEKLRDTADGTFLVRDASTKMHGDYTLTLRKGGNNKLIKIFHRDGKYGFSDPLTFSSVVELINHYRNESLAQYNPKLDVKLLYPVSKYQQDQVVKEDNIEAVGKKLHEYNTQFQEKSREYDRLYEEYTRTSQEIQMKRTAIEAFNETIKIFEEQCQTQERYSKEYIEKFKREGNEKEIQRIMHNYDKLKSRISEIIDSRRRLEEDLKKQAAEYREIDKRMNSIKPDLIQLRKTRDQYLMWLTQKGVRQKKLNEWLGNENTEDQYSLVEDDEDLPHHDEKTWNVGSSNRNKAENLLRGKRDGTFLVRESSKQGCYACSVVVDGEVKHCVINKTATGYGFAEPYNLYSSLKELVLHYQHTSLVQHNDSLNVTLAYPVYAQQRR

| SMILES | PI3Kβ IH % @ 1 uM (p110β/p85α) [%] | IC50 (p110β/p85α) [nM] | PI3Kδ IH % @ 1 uM (p110δ/p85α) [%] | IC50 (p110δ/p85α) [nM] | PI3Kγ IH % @ 1 uM (p110γ) [%] | IC50 (p110γ) [nM] |
| --- | --- | --- | --- | --- | --- | --- |
| N#Cc1c[nH]c2ncnc(N3CCC[C@H]3c3nn4ccc(Cl)c4c(=O)n3C3CCC3)c12 [Compound 162] | 83.2 | 137 | >100 | 1 | 97.7 | 6 |
| N#Cc1c[nH]c2ncnc(N3CCC[C@H]3c3nn4ccc(Cl)c4c(=O)n3CC3CC3)c12 [Compound 257] | 82.4 | 80 | >100 | 2 | >100 | 18 |
| CC(=O)c1n[nH]c2ncnc(N3CCC[C@H]3c3nn4ccc(Cl)c4c(=O)n3-c3ccccc3)c12 [Compound 297] | 61.5 |  | 96.0 | 6 | 92.7 | 15 |
| N#Cc1c[nH]c2ncnc(N3CC[C@H]3c3nn4ccc(Cl)c4c(=O)n3-c3ccccn3)c12 [Compound 309, (S)-4-(2-(5-chloro-4-oxo-3-(pyridin-2-yl)-3,4-dihydropyrrolo[2,1-f][1,2,4]triazin-2-yl)azetidin-1-yl)-7H-pyrrolo[2,3-d]pyrimidine-5-carbonitrile] | 35.5 |  | >100 | 11 | 94.6 | 99 |
| COCCO[C@H]1C[C@@H](c2nn3ccc(Cl)c3c(=O)n2-c2ccccc2)N(c2ncnc3[nH]cnc23)C1 [Compound 266] | 49.9 |  | >100 | 6 | >100 | 21 |
| Cc1cccc(-n2c([C@@H]3CCCN3c3ncnc4[nH]cnc34)nn3ccc(Cl)c3c2=O)n1 [Compound 342] | 45.2 |  | 92.1 | 38 | 77.1 | 272 |
| CC(Nc1ncnc(N)c1C#N)c1cc2ccc(Cl)n2c(=O)n1-c1ccccc1 (stereo not drawn) [Compound 125] | 95.7 | 6 | >100 | 1 | 94.0 | 3 |
| CC(=O)c1c[nH]c2ncnc(N3CC[C@H]3c3nn4ccc(Cl)c4c(=O)n3-c3ccccc3)c12 [Compound 185, (S)-2-(1-(5-acetyl-7H-pyrrolo[2,3-d]pyrimidin-4-yl)azetidin-2-yl)-5-chloro-3-phenylpyrrolo[2,1-f][1,2,4]triazin-4(3H)-one] | 45.9 |  | >100 | 6 | 99.0 |  |
| Nc1nc(N2CCC[C@H]2c2nn3ccc(Cl)c3c(=O)n2-c2ccccc2)c2cccn2n1 [Compound 331] | 20.9 |  | 71.9 | 121 | >100 | 147 |
| COCCO[C@H]1C[C@@H](c2nn3ccc(Cl)c3c(=O)n2-c2ccccc2)N(c2ncnc3[nH]cc(C#N)c23)C1 [Compound 264, 4-((2S,4S)-2-(5-chloro-4-oxo-3-phenyl-3,4-dihydropyrrolo[2,1-f][1,2,4]triazin-2-yl)-4-(2-methoxyethoxyl)pyrrolidin-1-yl)-7H-pyrrolo[2,3-d]pyrimidine-5-carbonitrile] | 92.8 | 69 | >100 | 1 | >100 | 3 |
| O=C(NCCO)c1c[nH]c2ncnc(N3CC[C@H]3c3nn4ccc(Cl)c4c(=O)n3-c3ccccc3)c12 [Compound 304] | 47.4 |  | 98.2 | 42 | 93.6 |  |
| Nc1ncc([N+](=O)[O-])c(N2CCC[C@H]2c2nn3ccc(Cl)c3c(=O)n2-c2ccccc2)n1 [Compound 240] | 45.0 |  | 98.1 | 34 | >100 | 36 |
| CNc1ncnc(N2CCC[C@H]2c2nn3ccc(Cl)c3c(=O)n2-c2ccccc2)n1 [Compound 200] | 28.2 |  | 90.9 | 196 | 93.4 | 190 |
| CS(=O)(=O)c1cccc(-n2c([C@@H]3CCCN3c3ncnc4[nH]cnc34)nn3ccc(Cl)c3c2=O)c1 [Compound 193] | 31.5 |  | >100 | 23 | 93.7 | 121 |
| CC(=O)c1cnc(N)nc1N1C[C@H](C)[C@H]1c1nn2ccc(C#N)c2c(=O)n1-c1ccccc1 [Compound 500] | 71.5 | 674 | 95.4 | 6 | 98.7 | 7 |
| CC(=O)c1c[nH]c2ncnc(N3CCC[C@H]3c3nn4ccc(Cl)c4c(=O)n3-c3ccccc3)c12 [Compound 211] | 88.3 | 51 | 98.4 | 0.5 | 92.2 |  |
| Nc1ncc(-c2c[nH]c3ncnc(N4CC[C@H]4c4nn5ccc(F)c5c(=O)n4-c4ccccc4)c23)cn1 [Compound 180, (S)-2-(1-(5-(2-aminopyrimidin-5-yl)-7H-pyrrolo[2,3-d]pyrimidin-4-yl)azetidin-2-yl)-5-fluoro-3-phenylpyrrolo[2,1-f][1,2,4]triazin-4(3H)-one] | 92.8 | 41 | >100 | < 0.46 | 98.7 | 2 |
| Nc1ccc(-c2c[nH]c3ncnc(N4CCOC[C@H]4c4nn5ccc(Cl)c5c(=O)n4-c4ccccc4)c23)cn1 [Compound 176] | 16.8 |  | 97.1 | 5 | 58.3 |  |

Results, then the compound that gave them:

| PI3Kβ IH % @ 1 uM (p110β/p85α) [%] | IC50 (p110β/p85α) [nM] | PI3Kδ IH % @ 1 uM (p110δ/p85α) [%] | IC50 (p110δ/p85α) [nM] | PI3Kγ IH % @ 1 uM (p110γ) [%] | IC50 (p110γ) [nM] | SMILES |
| --- | --- | --- | --- | --- | --- | --- |
| 92.4 |  | 98.2 |  | 91.2 |  | CC(Nc1ncnc2[nH]cnc12)c1cn2ccc(Cl)c2c(=O)n1-c1ccc(F)cc1 (stereo not drawn) [Compound 78] |
| 25.1 |  | 84.8 | 242 | 54.8 |  | O=c1c2c(Cl)ccn2nc([C@@H]2CCCN2c2ncnc3[nH]nnc23)n1-c1ccccc1 [Compound 220] |
| 57.8 |  | 96.5 | 77 | 98.6 | 8 | CC(=O)c1cnc(N)nc1N1CC[C@H]1c1nn2ccc(Cl)c2c(=O)n1-c1ccc(F)cc1 [Compound 302] |
| 97.0 |  | >100 |  | 92.5 |  | CC(=O)c1cnc(N)nc1NC(C)c1cn2ccc(F)c2c(=O)n1-c1ccccc1 (single isomer, unassigned) [Compound 452] |
| 69.7 | 501 | 98.4 | 4 | 86.1 | 58 | N#Cc1c[nH]c2ncnc(N3C[C@H](F)C[C@H]3c3nn4ccc(Cl)c4c(=O)n3-c3ccccc3)c12 [Compound 48] |
| 25.7 |  | 96.3 | 4 | 48.7 |  | N#Cc1ccc(-c2n[nH]c3ncnc(N4CC[C@H]4c4nn5ccc(Cl)c5c(=O)n4-c4ccccc4)c23)cn1 [Compound 173] |
| 51.5 |  | 99.1 | 29 | 82.7 | 148 | CC(=O)c1c(N)ncnc1N1CC[C@H]1c1nn2ccc(Cl)c2c(=O)n1-c1ccccc1 [Compound 300] |
| 69.3 | 96 | 99.1 | 3 | 97.3 | 8 | CC(Nc1ncnc2[nH]cnc12)c1cn2ccc(Cl)c2c(=O)n1-c1cccc(F)c1 (stereo not drawn) [Compound 75, 3-(1-(9H-purin-6-ylamino)ethyl)-8-chloro-2-(3-fluorophenyl)pyrrolo[1,2-a]pyrazin-1(2H)-one] |
| 89.8 | 6 | >100 | 1 | >100 | 5 | COc1ncc(-c2c[nH]c3ncnc(N4CC[C@H]4c4nn5ccc(Cl)c5c(=O)n4-c4ccccc4)c23)cn1 [Compound 100] |
